Laboratory results as given in paper PMC10856354 (International Journal of Molecular Sciences, 2024).
Where a SMILES comes first, the peptide text is derived from it. Bridges are numbered along the chain shown (N, C = ends). [ ]: non-standard residue; d: D form. The star is where a group is joined. DOTA = O=C(O)CN1CCN(CC(=O)O)CCN(CC(=O)*)CCN(CC(=O)O)CC1

Key:
hSST2R [1] = biological target: T1, hSST2R (Homo sapiens, UniProt P30874); assay: Immunofluorescence microscopy-based internalization assay in HEK293-hSST2R cells; type: cell-based; conditions: for ligand-induced hSST2R internalization (agonism): 30 min at 37 °C
T1 construct: expressed in transfected cells
T1 sequence (P30874 whole entry): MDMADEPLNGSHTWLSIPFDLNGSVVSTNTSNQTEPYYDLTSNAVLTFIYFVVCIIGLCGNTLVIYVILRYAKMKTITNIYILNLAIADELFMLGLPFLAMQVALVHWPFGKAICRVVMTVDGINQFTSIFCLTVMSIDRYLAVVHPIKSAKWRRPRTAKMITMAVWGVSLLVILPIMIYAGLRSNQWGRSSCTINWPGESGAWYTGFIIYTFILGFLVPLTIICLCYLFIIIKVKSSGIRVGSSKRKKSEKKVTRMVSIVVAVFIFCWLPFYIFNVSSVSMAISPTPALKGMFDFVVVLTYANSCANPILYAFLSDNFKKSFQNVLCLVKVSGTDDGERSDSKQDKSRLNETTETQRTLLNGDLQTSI
Method: Figure 3 Agonist stimulated hSST2R-internalization in HEK293-hSST2R cells determined by immunofluorescence microscopy.
An immunofluorescence microscopy-based internalization assay for hSST2R was performed in HEK293-hSST2R cells, grown on poly-DLys (20 μg/mL) (Sigma-Aldrich, St. Louis, MO, USA) coated 35-mm four-well plates (Cellstar, Greiner Bio-One GmbH, Frickenhausen, Germany). […] HEK293-hSST2R cells treated with vehicle alone were used as a negative control. The cells were then rinsed twice with PS (100 mM phosphate buffer containing 0.15 M sucrose), fixed and permeabilized for 7 min with cold methanol (−20 °C), rinsed twice with PS, and then blocked for 60 min at room temperature with PS containing 0.1% BSA. Next, cells were incubated for 60 min at room temperature with the hSST2R-specific primary antibody R2-88 (provided by Dr. A. Schönbrunn, Houston, TX, USA) diluted 1:1000 in PS and washed 3 × 5 min with PS containing 0.1% BSA. The cells were incubated for 60 min at room temperature in the dark with the secondary antibody Alexa Fluor 488 goat anti-rabbit IgG (H+ L) (Molecular Probes, Inc., Eugene, OR, USA) diluted in PS (1:600), washed 3 × 5 min with PS containing 0.1% BSA, embedded with PS/glycerol 1:1, and covered with a glass cover slip. The cells were imaged using a Leica DM RB immunofluorescence microscope (Leica, Deerfield, IL, USA) and an Olympus DP10 camera (Olympus Corporation, Shinjuku, Tokyo, Japan).

hSST2R [2] = biological target: T1, hSST2R; assay: Receptor autoradiography competition binding vs [125I]I-[LTT]SS28
Method: (§1) Cell membrane pellets were prepared from CHO-hSST1R cells, CCL39-hSST2R, CCL39-hSST3R, and CCL39-hSST4R cells, and HEK293-hSST2R cells and stored at −80 °C. Receptor autoradiography was performed on 20-μm-thick cryostat (Microm HM 500, Walldorf, Germany) sections of the membrane pellets mounted on microscope slides, and then stored at −20 °C, as previously described. […] The incubated sections were washed twice for 5 min in cold 170 mmol/L Tris-HCl (pH 8.2) containing 0.25% BSA. After a brief dip in 170 mmol/L Tris-HCl (pH 8.2), the sections were dried quickly and exposed for 1 week to Kodak BioMax MR film (Rochester, NY, USA). IC50 values were calculated after quantification of the data using a computer-assisted image processing system as described previously. Tissue standards (Autoradiographic [^125I] and/or [^14C] microscales, GE Healthcare; Little Chalfont, UK) that contain known amounts of isotope, cross-calibrated to tissue-equivalent ligand concentrations, were used for quantification.

hSST3R = biological target: T2, hSST3R (Homo sapiens, UniProt P32745); assay: as above
T2 construct: expressed in transfected cells; host or cells: CCL39 cells, gift of Dr. D. Hoyer (Novartis Pharma)
T2 sequence (P32745 whole entry): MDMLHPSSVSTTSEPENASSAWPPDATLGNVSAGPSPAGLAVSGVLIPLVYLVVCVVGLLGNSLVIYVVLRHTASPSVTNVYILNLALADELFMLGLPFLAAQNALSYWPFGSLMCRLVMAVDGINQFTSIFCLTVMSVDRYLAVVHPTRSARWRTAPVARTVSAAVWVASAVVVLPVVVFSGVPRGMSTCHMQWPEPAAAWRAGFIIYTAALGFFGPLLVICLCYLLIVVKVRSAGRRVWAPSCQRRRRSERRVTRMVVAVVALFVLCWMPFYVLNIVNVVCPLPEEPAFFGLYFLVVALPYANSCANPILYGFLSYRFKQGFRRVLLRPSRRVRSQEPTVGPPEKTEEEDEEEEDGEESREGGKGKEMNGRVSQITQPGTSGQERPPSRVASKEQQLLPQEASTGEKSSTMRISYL
Method: as §1

hSST1R = biological target: T3, hSST1R (Homo sapiens, UniProt P30872); assay: as above
T3 construct: expressed in transfected cells; host or cells: CHO cells, gift of Drs; T. Reisine and G. Singh
T3 sequence (P30872 whole entry): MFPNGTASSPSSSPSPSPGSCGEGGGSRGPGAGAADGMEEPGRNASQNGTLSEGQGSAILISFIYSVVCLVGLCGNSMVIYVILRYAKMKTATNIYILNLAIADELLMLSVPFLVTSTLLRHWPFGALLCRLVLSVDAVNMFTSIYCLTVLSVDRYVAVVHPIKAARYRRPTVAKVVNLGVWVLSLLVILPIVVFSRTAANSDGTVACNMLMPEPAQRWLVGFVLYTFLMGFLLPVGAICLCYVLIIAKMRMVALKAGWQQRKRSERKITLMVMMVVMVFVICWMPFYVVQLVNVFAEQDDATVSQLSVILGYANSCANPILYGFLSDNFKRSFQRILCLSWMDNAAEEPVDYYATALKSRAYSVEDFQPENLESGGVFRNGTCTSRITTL
Method: as §1

hSST5R = biological target: T4, hSST5R (Homo sapiens, UniProt P35346); assay: as above
T4 construct: expressed in transfected cells
T4 sequence (P35346 whole entry): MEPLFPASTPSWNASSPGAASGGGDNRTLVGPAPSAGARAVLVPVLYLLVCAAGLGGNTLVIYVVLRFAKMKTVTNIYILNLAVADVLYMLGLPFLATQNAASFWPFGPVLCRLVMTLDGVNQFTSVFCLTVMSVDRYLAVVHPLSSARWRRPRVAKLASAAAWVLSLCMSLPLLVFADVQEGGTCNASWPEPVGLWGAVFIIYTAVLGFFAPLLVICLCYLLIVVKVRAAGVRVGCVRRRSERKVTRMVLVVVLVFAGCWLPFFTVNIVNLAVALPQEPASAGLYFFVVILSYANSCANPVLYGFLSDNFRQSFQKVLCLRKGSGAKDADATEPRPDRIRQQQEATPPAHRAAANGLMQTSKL

[3] = mice, blood collected 5 min pi, radio-HPLC
Method: At 5 min pi blood (~1mL) was collected from the heart of mice in a prechilled insulin syringe and swiftly placed in an ice-cold polypropylene tube containing EDTA on ice. Blood samples were centrifuged at 2000× g at 4 °C for 10 min. […] The mixture was centrifuged for 10 min at 15,000× g at 4 °C. […] An RP18 Symmetry Shield cartridge column (5 μm, 3.9 mm × 20 mm, Waters, Vienna, Austria) was eluted at a 1 mL/min flow rate with the following gradient: 100%A/0%B to 60%A/40%B in 40 min, whereby A = 0.1% aqueous TFA and B = MeCN (system 3).

SMILES | ligand-induced hSST2R internalization (agonism) (hSST2R [1]; 1 µM) | prevention of SS14-induced hSST2R internalization (antagonism) (hSST2R [1]; 10 µM test peptide + 10 nM SS14, 30 min at 37 °C) | ligand-induced hSST2R internalization (agonism) (hSST2R [1]; 10 µM) | IC50 (hSST2R [2]) [nM] | IC50 (hSST3R) [nM] | IC50 (hSST1R) [nM] | IC50 (hSST5R) [nM] | % intact radioligand in peripheral blood [3] [%]
C[C@H](NC(=O)CN1CCN(CC(=O)O)CCN(CC(=O)O)CCN(CC(=O)O)CC1)C(=O)NCC(=O)N[C@H]1CSSC[C@@H](C(=O)O)NC(=O)[C@H](CO)NC(=O)[C@H]([C@@H](C)O)NC(=O)[C@@H]2CSSC[C@H](NC(=O)[C@H](CC(N)=O)NC(=O)[C@H](CCCCN)NC1=O)C(=O)N[C@@H](Cc1ccccc1)C(=O)N[C@H](Cc1c[nH]c3ccccc13)C(=O)N[C@@H](CCCCN)C(=O)N[C@@H]([C@@H](C)O)C(=O)N2 [AT5S, DOTA-Ala^1-Gly^2-c[Cys^3-Lys^4-Asn^5-c[Cys^6-Phe^7-DTrp^8-Lys^9-Thr^10-Cys^11]-Thr^12-Ser^13-Cys^14]] ({DOTA}-AGCKNCF[dW]KTCTSC-OH; disulfide 3-14, 6-11) | failed to trigger the hSST2R internalization | failed to prevent the hSST2R internalization | failed to trigger the hSST2R internalization | 616 ± 148 | > 1000 | > 1000 | > 1000 | 
C[C@H](NC(=O)CN1CCN(CC(=O)O)CCN(CC(=O)O)CCN(CC(=O)O)CC1)C(=O)NCC(=O)N[C@H]1CSSC[C@@H](C(=O)O)NC(=O)[C@H](CO)NC(=O)[C@H]([C@@H](C)O)NC(=O)[C@@H]2CSSC[C@H](NC(=O)[C@H](CC(N)=O)NC(=O)[C@H](CCCCN)NC1=O)C(=O)N[C@@H](Cc1ccccc1)C(=O)N[C@H](Cc1c[nH]c3ccccc13)C(=O)N[C@@H](CCCCN)C(=O)N[C@@H]([C@@H](C)O)C(=O)N2 [[^111In]In-AT5S, metal not drawn] ({DOTA}-AGCKNCF[dW]KTCTSC-OH; disulfide 3-14, 6-11) |  |  |  |  |  |  |  | > 96
